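Step 1: Grow cells in 96-well plates. Step 2: Expose to compound for 48 hours at 5 concentrations. Step 3: Interpolate endpoints linearly; if unreached, use highest concentration. GI50 = concentration required for 50% inhibition of growth. Definition used: TGI = concentration required for complete inhibition of growth.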
Legend:
Assay in all cases: growth of human tumour cells (NCI), 48 h
786-0 renal = tested on: 786-0 renal
CCRF-CEM leukemia = tested on: CCRF-CEM leukemia
DU-145 prostate = tested on: DU-145 prostate
EKVX NSCLC = tested on: EKVX NSCLC
HL-60(TB) leukemia = tested on: HL-60(TB) leukemia
OVCAR-4 ovarian = tested on: OVCAR-4 ovarian
OVCAR-8 ovarian = tested on: OVCAR-8 ovarian
SF-268 CNS = tested on: SF-268 CNS
SF-295 CNS = tested on: SF-295 CNS
SF-539 CNS = tested on: SF-539 CNS

## COc1cc(/C=C2\CCC/C(=C\c3cc(CN4CCCC4)c(O)c(OC)c3)C2=O)cc(CN2CCCC2)c1O
786-0 renal
  GI50: 3.15 µM
  TGI: 14.7 µM
CCRF-CEM leukemia
  GI50: 2.71 µM
  TGI: 8.37 µM
DU-145 prostate
  GI50: 4.63 µM
  TGI: 15.4 µM
EKVX NSCLC
  GI50: 6.94 µM
  TGI: 20.2 µM
HL-60(TB) leukemia
  GI50: 2.15 µM
  TGI: 5.75 µM
OVCAR-4 ovarian
  GI50: 5.93 µM
  TGI: > 100 µM
OVCAR-8 ovarian
  GI50: 3.27 µM
  TGI: > 100 µM
SF-268 CNS
  GI50: 4.53 µM
  TGI: 16.3 µM
SF-295 CNS
  GI50: 9.89 µM
  TGI: 25.2 µM
SF-539 CNS
  GI50: 1.72 µM
  TGI: 3.63 µM

## CC(C)(C)N1CC1CNC(=O)C(=O)NCC1CN1C(C)(C)C (stereo not drawn)
786-0 renal
  TGI: 4.31 µM
CCRF-CEM leukemia
  TGI: 15.2 µM
DU-145 prostate
  TGI: > 26.9 µM
EKVX NSCLC
  TGI: > 31.1 µM
HL-60(TB) leukemia
  TGI: 4.57 µM
OVCAR-4 ovarian
  TGI: 60.2 µM
OVCAR-8 ovarian
  TGI: 14.8 µM
SF-268 CNS
  TGI: 15.4 µM
SF-295 CNS
  TGI: 14.3 µM
SF-539 CNS
  TGI: 13.7 µM

## COc1ccc2nc3cc([N+](=O)[O-])ccc3c(NCCO)c2c1
786-0 renal
  GI50: 2.5 µM
  TGI: 11.4 µM
CCRF-CEM leukemia
  GI50: 2.17 µM
  TGI: 13.4 µM
DU-145 prostate
  GI50: 3.62 µM
EKVX NSCLC
  GI50: 24.4 µM
HL-60(TB) leukemia
  GI50: 3.03 µM
OVCAR-4 ovarian
  GI50: 1.77 µM
  TGI: 3.99 µM
OVCAR-8 ovarian
  GI50: 3.15 µM
  TGI: 18.8 µM
SF-268 CNS
  GI50: 1.15 µM
  TGI: 11.5 µM
SF-295 CNS
  GI50: 3.49 µM
  TGI: 15.7 µM
SF-539 CNS
  GI50: 3.35 µM
  TGI: 13 µM

## O=C(O)c1ccc(CSc2nc3ccccc3[nH]2)cc1
786-0 renal
  GI50: > 100 µM
  TGI: > 100 µM
CCRF-CEM leukemia
  GI50: > 100 µM
  TGI: > 100 µM
DU-145 prostate
  GI50: > 100 µM
  TGI: > 100 µM
EKVX NSCLC
  GI50: > 100 µM
  TGI: > 100 µM
HL-60(TB) leukemia
  GI50: > 100 µM
  TGI: > 100 µM
OVCAR-4 ovarian
  GI50: > 100 µM
  TGI: > 100 µM
OVCAR-8 ovarian
  GI50: > 100 µM
  TGI: > 100 µM
SF-268 CNS
  GI50: > 100 µM
  TGI: > 100 µM
SF-295 CNS
  GI50: > 100 µM
  TGI: > 100 µM
SF-539 CNS
  GI50: > 100 µM
  TGI: > 100 µM

## Nc1nc(N)c2cc(S(=O)(=O)c3ccc4ccccc4c3)ccc2n1
786-0 renal
  TGI: > 100 µM
CCRF-CEM leukemia
  GI50: > 100 µM
  TGI: > 100 µM
DU-145 prostate
  GI50: 7.78 µM
  TGI: > 100 µM
EKVX NSCLC
  TGI: > 100 µM
HL-60(TB) leukemia
  TGI: > 100 µM
OVCAR-8 ovarian
  TGI: 49.6 µM
SF-268 CNS
  TGI: > 58.9 µM
SF-295 CNS
  TGI: > 56.3 µM
SF-539 CNS
  TGI: > 74.7 µM

## NS(=O)(=O)c1ccc(N=Nc2c(O)[nH]c3ccc(C(=O)NCCCn4ccnc4)cc23)cc1
786-0 renal
  GI50: > 25 µM
  TGI: > 25 µM
CCRF-CEM leukemia
  GI50: > 18.5 µM
  TGI: > 25 µM
DU-145 prostate
  GI50: > 25 µM
  TGI: > 25 µM
EKVX NSCLC
  GI50: > 25 µM
  TGI: > 25 µM
HL-60(TB) leukemia
  GI50: > 25 µM
  TGI: > 25 µM
OVCAR-4 ovarian
  GI50: > 25 µM
  TGI: > 25 µM
OVCAR-8 ovarian
  GI50: > 25 µM
  TGI: > 25 µM
SF-268 CNS
  GI50: > 25 µM
  TGI: > 25 µM
SF-295 CNS
  GI50: > 25 µM
  TGI: > 25 µM
SF-539 CNS
  GI50: > 25 µM
  TGI: > 25 µM

## O=C1CCc2cc(Br)ccc2O1
786-0 renal
  TGI: > 100 µM
CCRF-CEM leukemia
  TGI: > 100 µM
DU-145 prostate
  TGI: > 100 µM
EKVX NSCLC
  TGI: > 100 µM
HL-60(TB) leukemia
  TGI: > 100 µM
OVCAR-4 ovarian
  TGI: > 100 µM
OVCAR-8 ovarian
  TGI: > 100 µM
SF-268 CNS
  TGI: > 100 µM
SF-295 CNS
  TGI: > 100 µM
SF-539 CNS
  TGI: > 100 µM

— PubChem BioAssay (NCI)
